This passage reports IC50 results from patent US20250034110A1, “LPAR1 ANTAGONISTS AND USES THEREOF” (Pipeline Therapeutics, Inc., priority 2021, published 2025).

The term IC50 denotes the concentration at which inhibition is half-maximal.

The target of this experiment is human LPAR1 (Homo sapiens, UniProt Q92633). Briefly: In vitro functional assay of lysophosphatidic acid receptor 1 activity (calcium flux). Format: cell-based. In general terms: Calcium assays in cells follow changes in intracellular calcium, usually with a dye or a luminescent sensor.
Setting [1] is: B103 cells stably expressing human LPAR1, calcium flux (Fluo-4 NW) after lysophosphatidic acid (18:1) at EC80, 100 pM to 10 μM, read-out: LPAR1 IC50.

Read-outs that look alike come from different tables or passages of the source.

human LPAR1, sequence (Q92633 whole entry): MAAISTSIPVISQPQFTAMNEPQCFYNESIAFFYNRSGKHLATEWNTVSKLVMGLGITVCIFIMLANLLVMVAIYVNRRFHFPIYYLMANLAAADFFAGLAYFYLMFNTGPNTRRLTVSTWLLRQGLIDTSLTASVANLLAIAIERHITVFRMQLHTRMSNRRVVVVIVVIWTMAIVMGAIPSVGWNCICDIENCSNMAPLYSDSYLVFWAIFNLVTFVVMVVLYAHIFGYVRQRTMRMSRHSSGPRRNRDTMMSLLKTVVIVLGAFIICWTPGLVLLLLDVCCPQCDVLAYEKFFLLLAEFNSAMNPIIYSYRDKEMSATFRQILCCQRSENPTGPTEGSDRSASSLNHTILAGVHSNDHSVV

For the compound `Cc1ccc(NC(=O)N(C[C@H]2CC[C@H](C(=O)O)CC2)c2ccccc2C(C)C)c(OC(F)F)n1` [Example 171], the IC50 under setting [1] is 10 to 100 nM.

For `CC(=O)N1CCC(N(C(=O)Nc2ccc(C)nc2OC(F)F)c2cccnc2C(C)C)CC1` [Example 31, 1-(1-acetylpiperidin-4-yl)-3-(2-(difluoromethoxy)-6-methylpyridin-3-yl)-1-(2-isopropylpyridin-3-yl)urea], the IC50 (LPAR1 IC50) is 100 to 1000 nM.

As to `CC(=O)N1CCC(N(C(=O)Nc2cccnc2OC(F)F)c2ccccc2C(C)C)CC1` [Example 91], the IC50 (LPAR1 IC50) lay within 10 to 100 nM.

In the case of `Cc1ccc(NC(=O)N(C[C@@H]2C[C@H]2C(=O)O)c2ccccc2C(C)C)c(OC(F)F)n1` (racemic) [Example 228], the IC50 under setting [1] lay within 100 to 1000 nM.

As to `CC(=O)N1CC2(CCC(N(C(=O)Nc3ccc(C)nc3OC(F)F)c3ccccc3C(C)C)CC2)C1` [Example 250, 1-(2-acetyl-2-azaspiro[3.5]nonan-7-yl)-3-(2-(difluoromethoxy)-6-methylpyridin-3-yl)-1-(2-isopropylphenyl)urea], under setting [1], the IC50 was 100 to 1000 nM.

Consider `COc1ccc(NC(=O)N(c2cccc(C)c2C)C2CCN(C(C)=O)CC2)c(OC(F)F)n1` [Example 42, 1-(1-acetylpiperidin-4-yl)-3-(2-(difluoromethoxy)-6-methoxypyridin-3-yl)-1-(2,3-dimethylphenyl)urea], for which, for the setting “LPAR1 IC50”, the IC50 lay in the range of 100 to 1000 nM.

Take `CC(C)c1ccccc1N(C(=O)Nc1cc(F)c(Cl)cc1OCC(F)F)[C@H]1CC[C@H](C(=O)O)CC1` [Example 334, (1r,4r)-4-(3-(4-chloro-2-(2,2-difluoroethoxy)-5-fluorophenyl)-1-(2-isopropylphenyl)ureido)cyclohexane-1-carboxylic acid]: the IC50 under setting [1] is less than 10 nM.

Take `COc1ccc(NC(=O)N(c2ccccc2C(C)C)[C@H]2CC[C@H](C(=O)O)CC2)c(OC)n1` [Example 288, (1r,4r)-4-(3-(2,6-dimethoxypyridin-3-yl)-1-(2-isopropylphenyl)ureido)cyclohexane-1-carboxylic acid]: under setting [1], the IC50 lay in the range of 10 to 100 nM.

With `Cc1nc(OC(F)F)c(NC(=O)N(c2ccccc2C(C)C)[C@H]2CC[C@@H](CC(=O)O)CC2)cc1F` [Example 222], under setting [1], the 50% inhibitory concentration (IC50) fell in the range of 10 to 100 nM.

As to `CC(=O)N1CC2(CC(N(C(=O)Nc3ccc(C)cc3OC(F)F)c3ccccc3C(C)C)C2)C1` [Example 125, 1-(2-acetyl-2-azaspiro[3.3]heptan-6-yl)-3-(2-(difluoromethoxy)-4-methylphenyl)-1-(2-isopropylphenyl)urea], under setting [1], the IC50 lay in the range of 10 to 100 nM.

As to `CC(C)Oc1ccc(NC(=O)N(c2ccccc2C(C)C)[C@H]2CC[C@H](C(=O)O)CC2)c(OCC(F)F)n1` [Example 259, (1r,4r)-4-(3-(2-(2,2-difluoroethoxy)-6-isopropoxypyridin-3-yl)-1-(2-isopropylphenyl)ureido)cyclohexane-1-carboxylic acid], under setting [1], the IC50 lay within 10 to 100 nM.

For the compound `CC(=O)N1CCC(N(C(=O)Nc2ccc(C)nc2OC(F)F)c2cccc(C)c2)CC1` [Example 33, 1-(1-acetylpiperidin-4-yl)-3-(2-(difluoromethoxy)-6-methylpyridin-3-yl)-1-(m-tolyl)urea], where the note is “LPAR1 IC50”, the IC50 was greater than 1000 nM.

For `CC(C)c1ccccc1N(C(=O)Nc1cc(F)c(F)cc1OC(F)F)[C@H]1CC[C@H](C(=O)O)CC1` [Example 298, (1r,4r)-4-(3-(2-(difluoromethoxy)-4,5-difluorophenyl)-1-(2-isopropylphenyl)ureido)cyclohexane-1-carboxylic acid], under setting [1], the IC50 was less than 10 nM.

For the compound `Cc1ccc(NC(=O)N(c2ccccc2C(C)C)[C@H]2CCC(=O)N(C)C2)c(OC(F)F)n1` [Example 6, (S)-3-(2-(difluoromethoxy)-6-methylpyridin-3-yl)-1-(2-isopropylphenyl)-1-(1-methyl-6-oxopiperidin-3-yl)urea], the IC50 under setting [1] fell in the range of 10 to 100 nM.

In the case of `Cc1ccc(NC(=O)N(C[C@@H]2CCN2C(=O)OC(C)(C)C)c2ccccc2C(C)C)c(OC(F)F)n1` [Example 12, tert-butyl (S)-2-((3-(2-(difluoromethoxy)-6-methylpyridin-3-yl)-1-(2-isopropylphenyl)ureido)methyl)azetidine-1-carboxylate], under setting [1], the IC50 is greater than 1000 nM.

As to `Cc1ccc(NC(=O)N(c2ccccc2C(C)C)C2CCC(=O)CC2)c(OC(F)F)n1` [Example 243], the IC50 under setting [1] was in the range of 100 to 1000 nM.

Turning to `Cc1ccc(NC(=O)N(c2ccccc2C(C)C)[C@H]2CCN(C(=O)OC(C)(C)C)C2)c(OC(F)F)n1` [Example 8, tert-butyl (S)-3-(3-(2-(difluoromethoxy)-6-methylpyridin-3-yl)-1-(2-isopropylphenyl)ureido)pyrrolidine-1-carboxylate], under setting [1], the concentration for half-maximal inhibition (IC50) lay in the range of 100 to 1000 nM.

As for `CC(=O)N1CCC(N(C(=O)Nc2ncc(Br)cc2OC(F)F)c2ncccc2C(C)C)CC1` [Example 142], the IC50 (LPAR1 IC50) was greater than 1000 nM.

Turning to `COc1cc(C)ccc1NC(=O)N(c1ccccc1C(C)C)[C@H]1CC[C@H](C(=O)O)CC1` [Example 327, (1r,4r)-4-(1-(2-isopropylphenyl)-3-(2-methoxy-4-methylphenyl)ureido)cyclohexane-1-carboxylic acid], the IC50 under setting [1] is less than 10 nM.

`COC[C@H](C)Oc1nc(OC)ccc1NC(=O)N(c1ccccc1C(C)C)[C@H]1CC[C@H](C(=O)O)CC1` [Example 339, trans-4-(1-(2-isopropylphenyl)-3-(6-methoxy-2-(((S)-1-methoxypropan-2-yl)oxy)pyridin-3-yl)ureido)cyclohexane-1-carboxylic acid]: the IC50 under setting [1] fell in the range of 10 to 100 nM.

In the case of `Cc1ccc(NC(=O)N(c2ccccc2C(C)C)C2CN(C(=O)CC#N)C2)c(OC(F)F)n1` [Example 81, 1-(1-(2-cyanoacetyl)azetidin-3-yl)-3-(2-(difluoromethoxy)-6-methylpyridin-3-yl)-1-(2-isopropylphenyl)urea], under setting [1], the IC50 was in the range of 10 to 100 nM.

With `CC(=O)N1CCC(N(C(=O)Nc2ncc(C(F)(F)F)cc2Br)c2ccccc2C(C)C)CC1` [Example 139], the IC50 (LPAR1 IC50) was greater than 1000 nM.

Take `COC[C@H](C)Oc1cc(C)ncc1NC(=O)N(c1ccccc1C(C)C)[C@H]1CC[C@H](C(=O)O)CC1` [Example 317, trans-4-(1-(2-isopropylphenyl)-3-(4-(((S)-1-methoxypropan-2-yl)oxy)-6-methylpyridin-3-yl)ureido)cyclohexane-1-carboxylic acid]: under setting [1], the IC50 is 100 to 1000 nM.
